Results from patent US4297279A, “Imidazoledicarboxylic acid derivative” (Ajinomoto Co., Inc., priority 1979, dated 1981).
In brackets after ≈: the same amount, converted by molar mass. Counter-ions that a name gives are not always drawn.

Test system: Pseudomonas aeruginosa AJ 2116
Test: Minimum Inhibitory Concentration (MIC) against Pseudomonas aeruginosa AJ 2116 in culture
Type: cell-based
Settings: not given
From the text: Comparative Minimun Inhibitory Concentrations (MIC) (the minimum concentration of the compound in micrograms per milliliter required to inhibit the growth of the test organism in a culture) obtained using Pseudomonas aeruginosa AJ 2116 as the test organism, are presented in Table 2.

Row | SMILES | MIC (minimum concentration of the compound required to inhibit the growth of the test organism in a culture) [µg/mL]
1 | CC(=O)OCC1=C(C(=O)O)N2C(=O)[C@@H](NC(=O)[C@H](NC(=O)c3[nH]cnc3C(=O)O)c3ccccc3)C2SC1 (stereo partly drawn) [Example 3a, 7-β-[D(-)-α-(4-carboxyimidazole-5-carboxamido)phenylacetamido]cephalosporanic acid] | 50

Same assay, conditions: AJ2116, read-out: MIC (minimum concentration of the compound required to inhibit the growth of the test organism in a culture)

Row | SMILES | MIC [µg/mL]
2 | CC(=O)OCC1=C(C(=O)O)N2C(=O)[C@@H](NC(=O)[C@H](NC(=O)c3nc[nH]c3C(=O)O)c3ccc(O)cc3)[C@H]2SC1 [Example 3d, 7-β-[D(-)-α-(4-carboxyimidazole-5-carboxamido)-p-hydroxyphenylacetamido]cephalosporanic acid] | 50 (≈ 89.4 µM)
3 | CC1(C)S[C@@H]2[C@H](NC(=O)[C@H](NC(=O)c3nc[nH]c3C(=O)O)c3ccc(O)cc3)C(=O)N2[C@H]1C(=O)O [Example 3c, D-α-(4-carboximidazole-5-carboxamido)-p-hydroxybenzylpenicillin monohydrate] | 12.5
4 | CC1(C)S[C@@H]2[C@H](NC(=O)[C@H](N)c3ccccc3)C(=O)N2[C@H]1C(=O)O [Ampicillin, reference compound] | > 500
5 | O=C(O)Cc1ccc[n+](CC2=C(C(=O)[O-])N3C(=O)[C@@H](NC(=O)[C@H](NC(=O)c4nc[nH]c4C(=O)O)c4ccccc4)[C@H]3SC2)c1 [Example 6, disodium salt] | 12.5
6 | CC1(C)S[C@@H]2[C@H](NC(=O)C(C(=O)O)c3ccccc3)C(=O)N2[C@H]1C(=O)O (stereo partly drawn) [Carbenicillin, reference compound] | 100 (≈ 264 µM)
7 | CC1(C)S[C@@H]2[C@H](NC(=O)[C@H](NC(=O)c3nc[nH]c3C(=O)O)c3ccccc3)C(=O)N2[C@H]1C(=O)O [Example 3b, D-α-(4-carboxyimidazole-5-carboxamido)benzylpenicillin] | 12.5 (≈ 25.6 µM)
8 | Cn1nnnc1SCC1=C(C(=O)O)N2C(=O)[C@@H](NC(=O)[C@H](NC(=O)c3nc[nH]c3C(=O)O)c3ccccc3)[C@H]2SC1 [Example 4, 7-β-[D-(-)-α-(4-carboxyimidazole-5-carboxamido)phenylacetamido]-3-[[(1-methyl-1H-tetrazol-5-yl)thio]methyl]-3-cephem-4-carboxylic acid monohydrate] | 50
9 | O=C([O-])C1=C(C[n+]2ccc(CCS(=O)(=O)O)cc2)CS[C@@H]2[C@H](NC(=O)[C@H](NC(=O)c3nc[nH]c3C(=O)O)c3ccccc3)C(=O)N12 [Example 5, 7-β-[D-(-)-α-(4-carboxyimidazole-5-carboxamido)phenylacetamido]-3-(4-α-sulphoethylpyridiniummethyl-3-cephem-4-carboxylic acid disodium salt trihydrate] | 12.5
